Laboratory results: patent US20160024052A1, “BENZIMIDAZOLE RETINOIC ACID RECEPTOR-RELATED ORPHAN RECEPTOR MODULATORS AND USES THEREOF” (INNOV17 LLC, priority 2014, published 2016)

Experiments:
Type in all cases: cell-based
Conditions in all cases: 72 h; human CD4+ T cells under TH17-polarizing conditions, 3 days, supernatant ELISA, 0.1% DMSO
[1] = test system: IL-17A; assay: Human TH17 cytokine inhibition measured by ELISA: IL-17A
Method: (§1) Human TH17 Cytokine Inhibition as Measured by ELISA
(§2) Peripheral blood mononuclear cells (PBMCs) were sourced from freshly prepared leukocyte enriched plasma (buffy coat) from healthy donors (New York Blood Center). PBMCs were isolated by density gradient centrifugation using Ficoll-Paque™ PLUS (GE Healthcare). Human CD4+ T cells were seeded into 96-well plates (5×10^4 cells/well) and activated with plate-bound anti-human (h)-CD3 antibody and soluble h-aCD28 (both at lug/ml; eBioscience) and differentiated into TH17 cells with 20 ng/mL h-IL-6, 5 ng/mL h-TGF-β1, 10 ng/mL h-IL-23 (eBioscience) and 10 ng/mL IL-1β (Miltenyi Biotec) in serum-free TexMACS Medium (Miltenyi Biotec) supplemented with 1% Penicillin/Streptomycin (Lonza) for 3 days. CD4+ T cells propagated under TH17-polarizing conditions were cultured in the presence or absence of various concentrations of compounds with a final concentration of 0.1% DMSO. Supernatants were collected and stored at −20° C. until assayed for IL-17A, IL-17F and IL-21 levels by “Ready-Set-Go” ELISA kits (eBioscience) as per manufacturer's instructions. Endpoint absorbance was read at 450 nm using a microplate reader (Perkin Elmer).

[2] = test system: IL-17F; assay: Human TH17 cytokine inhibition measured by ELISA: IL-17F
Method: as §1, §2

[3] = test system: IL-22; assay: Human TH17 cytokine inhibition measured by ELISA: IL-22
[4] = test system: IL-21; assay: Human TH17 cytokine inhibition measured by ELISA: IL-21
Method: as §1, §2

Row | SMILES | IC50 [1] [µM] | IC50 [2] [µM] | IC50 [3] [µM] | IC50 [4] [µM]
1 | O=C(CC1CCCCC1)N1CCC(Cn2cnc3cc(-c4cn[nH]c4)ccc32)CC1 [Example 10] | < 10 | < 10 | < 10 | < 10
2 | O=S(=O)(c1ccccc1)N1CCC(Cn2cnc3cc(-c4cn[nH]c4)ccc32)CC1 [Example 11, 1-((1-(phenylsulfonyl)piperidin-4-yl)methyl)-5-(1H-pyrazol-4-yl)-1H-benzo[d]imidazole] | < 10 | < 10 | < 10 | < 10
3 | O=S(=O)(Cc1ccccc1)N1CCC(Cn2cnc3cc(-c4cn[nH]c4)ccc32)CC1 [Example 12, 1-((1-(benzylsulfonyl)piperidin-4-yl)methyl)-5-(1H-pyrazol-4-yl)-1H-benzo[d]imidazole] | < 10 | < 10 | < 10 | > 10
4 | O=C(Cc1ccccc1)N1CCC(Cn2cnc3cc(-c4cn[nH]c4)ccc32)CC1 [Example 8] | > 10 | < 10 | < 10 | < 10
5 | O=C(c1ccccc1)N1CCC(Cn2cnc3cc(-c4cn[nH]c4)ccc32)CC1 [Example 7, (4-((5-(1H-pyrazol-4-yl)-1H-benzo[d]imidazol-1-yl)methyl)piperidin-1-yl)(phenyl)methanone] | > 10 | < 10 | < 10 | < 10
6 | O=C(CCc1ccccc1)N1CCC(Cn2cnc3cc(-c4cn[nH]c4)ccc32)CC1 [Example 9, 1-(4-((5-(1H-pyrazol-4-yl)-1H-benzo[d]imidazol-1-yl)methyl)piperidin-1-yl)-3-phenylpropan-1-one] | < 10 | < 10 | < 10 | < 10
